# Results as given in patent US8318762B2, “Pyrazolospiroketone acetyl-CoA carboxylase inhibitors” (Pfizer Inc., priority 2008, dated 2012).
# pIC50: −log10 of the molar value.
# Target: T1, recombinant human ACC2 (Homo sapiens, UniProt O00763)
# T1 construct: a full length Cytomax clone of ACC2 was purchased from Cambridge Bioscience Limited; made in house; host or cells: CHO cells (tetracycline induction, pcDNA5 FRT TO-TOPO); purified on a Softlink Soft Release Avidin column
# Assay: Measurement of human ACC2 inhibition (recombinant hACC2 Transcreener ADP detection FP assay)
# Format: biochemical
# Conditions: recombinant hACC2 transcreener assay; read-out: rhACC2 IC50
# Procedure: [3] Measurement of human ACC2 inhibition. Human ACC2 inhibition was measured using purified recombinant human ACC2 (hrACC2). […] The ACC2 was expressed in CHO cells by tetracycline induction and harvested in 5 liters of DMEM/F12 with glutamine, biotin, hygromycin and blasticidin with 1 μg/mL tetracycline (Invitrogen, Carlsbad, Calif.). The conditioned medium containing ACC2 was then applied to a Softlink Soft Release Avidin column (Promega, Madison, Wis.) and eluted with 5 mM biotin. […] The purified ACC2 was dialyzed in 50 mM Tris, 200 mM NaCl, 4 mM DTT, 2 mM EDTA, and 5% glycerol. […] The final conditions for the assay were 50 mM HEPES, pH7.5, 5 mM MgCl2, 5 mM tripotassium citrate, 2 mM DTT, 0.5 mg/mL BSA, 30 μM acetyl-CoA, 50 μM ATP, and 8 mM KHCO3. Typically, a 10 μl reaction was run for 1 hour at room temperature, and 10 μl of Transcreener stop and detect buffer was added and incubated for an additional 1 hour.
# T1 sequence (O00763 whole entry): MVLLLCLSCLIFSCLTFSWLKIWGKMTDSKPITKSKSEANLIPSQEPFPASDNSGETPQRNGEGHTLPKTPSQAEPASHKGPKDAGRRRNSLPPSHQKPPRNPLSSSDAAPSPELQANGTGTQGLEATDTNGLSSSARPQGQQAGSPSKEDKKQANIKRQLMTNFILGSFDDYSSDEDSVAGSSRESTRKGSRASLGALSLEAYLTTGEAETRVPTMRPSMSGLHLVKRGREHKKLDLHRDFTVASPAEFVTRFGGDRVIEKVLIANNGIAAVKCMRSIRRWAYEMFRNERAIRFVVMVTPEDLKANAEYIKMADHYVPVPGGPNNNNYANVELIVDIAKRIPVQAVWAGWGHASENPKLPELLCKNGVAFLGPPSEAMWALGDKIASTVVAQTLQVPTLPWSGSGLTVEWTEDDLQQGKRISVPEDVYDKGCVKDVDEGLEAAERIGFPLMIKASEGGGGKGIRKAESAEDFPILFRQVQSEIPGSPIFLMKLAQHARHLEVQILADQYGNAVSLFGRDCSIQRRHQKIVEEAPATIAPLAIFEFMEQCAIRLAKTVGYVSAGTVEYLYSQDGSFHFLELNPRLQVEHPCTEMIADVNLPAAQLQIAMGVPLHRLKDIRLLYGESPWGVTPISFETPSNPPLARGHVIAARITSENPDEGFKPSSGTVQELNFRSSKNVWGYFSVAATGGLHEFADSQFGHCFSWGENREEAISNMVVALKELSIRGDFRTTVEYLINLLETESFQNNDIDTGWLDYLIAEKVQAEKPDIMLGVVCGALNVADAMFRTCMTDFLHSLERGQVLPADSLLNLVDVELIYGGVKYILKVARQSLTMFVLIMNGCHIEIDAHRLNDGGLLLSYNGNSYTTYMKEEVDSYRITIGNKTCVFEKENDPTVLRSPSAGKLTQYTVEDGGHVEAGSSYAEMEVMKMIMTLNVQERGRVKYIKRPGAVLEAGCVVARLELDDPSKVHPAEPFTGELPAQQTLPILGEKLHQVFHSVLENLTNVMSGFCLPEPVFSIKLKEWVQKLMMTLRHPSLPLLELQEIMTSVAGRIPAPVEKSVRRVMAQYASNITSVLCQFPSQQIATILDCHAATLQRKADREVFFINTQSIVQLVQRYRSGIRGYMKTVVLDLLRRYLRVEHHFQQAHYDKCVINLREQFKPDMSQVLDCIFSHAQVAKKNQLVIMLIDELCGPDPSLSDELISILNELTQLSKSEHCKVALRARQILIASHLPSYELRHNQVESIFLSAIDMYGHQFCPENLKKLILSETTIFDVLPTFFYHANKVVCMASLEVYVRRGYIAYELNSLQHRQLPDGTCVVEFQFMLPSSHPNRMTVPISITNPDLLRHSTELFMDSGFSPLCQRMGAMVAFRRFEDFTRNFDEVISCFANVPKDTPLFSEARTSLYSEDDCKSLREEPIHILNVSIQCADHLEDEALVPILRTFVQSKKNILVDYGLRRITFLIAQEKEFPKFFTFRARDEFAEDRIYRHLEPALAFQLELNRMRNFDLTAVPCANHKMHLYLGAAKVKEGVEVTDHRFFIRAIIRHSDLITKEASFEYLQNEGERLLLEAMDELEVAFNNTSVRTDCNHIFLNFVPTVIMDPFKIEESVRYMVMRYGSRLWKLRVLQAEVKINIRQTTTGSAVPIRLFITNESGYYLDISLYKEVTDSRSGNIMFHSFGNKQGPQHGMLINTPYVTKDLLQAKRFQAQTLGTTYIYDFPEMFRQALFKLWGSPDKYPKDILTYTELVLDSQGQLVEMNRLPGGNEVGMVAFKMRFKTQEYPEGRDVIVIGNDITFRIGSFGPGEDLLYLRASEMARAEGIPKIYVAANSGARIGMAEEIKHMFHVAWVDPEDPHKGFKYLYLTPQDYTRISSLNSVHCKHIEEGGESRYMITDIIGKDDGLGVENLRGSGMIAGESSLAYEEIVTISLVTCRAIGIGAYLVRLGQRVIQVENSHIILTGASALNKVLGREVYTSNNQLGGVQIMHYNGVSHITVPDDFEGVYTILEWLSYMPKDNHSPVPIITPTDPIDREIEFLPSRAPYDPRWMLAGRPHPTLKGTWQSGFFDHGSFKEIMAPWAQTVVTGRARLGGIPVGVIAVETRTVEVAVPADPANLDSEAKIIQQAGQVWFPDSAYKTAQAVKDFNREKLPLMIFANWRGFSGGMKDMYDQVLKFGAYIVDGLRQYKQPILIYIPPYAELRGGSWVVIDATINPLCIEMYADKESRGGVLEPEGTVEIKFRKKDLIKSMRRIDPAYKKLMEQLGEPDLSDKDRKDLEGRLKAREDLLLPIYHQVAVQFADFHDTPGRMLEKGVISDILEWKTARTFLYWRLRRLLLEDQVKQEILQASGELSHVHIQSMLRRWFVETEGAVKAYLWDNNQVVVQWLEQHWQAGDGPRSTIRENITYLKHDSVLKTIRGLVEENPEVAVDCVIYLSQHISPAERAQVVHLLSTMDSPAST
row,Compound,pIC50
1,CC(C)(C)n1cc2c(n1)C(=O)CC1(CCN(C(=O)c3ccc4cnsc4c3)CC1)O2 [24.001],7.64
2,CC(C)(C)n1cc2c(n1)C(=O)CC1(CCN(C(=O)c3ccc4oncc4c3)CC1)O2 [22.002],6.29
3,CCn1nc2c(c1C)OC1(CCN(C(=O)c3ccc4occc4c3)CC1)CC2=O [17.002],6.55
4,Cc1n[nH]c2c(C)cc(C(=O)N3CCC4(CC3)CC(=O)c3nn(C)cc3O4)cc12 [1.006],7.10
5,CCn1nc2c(c1C)OC1(CCN(C(=O)c3ccc4[nH]nc(C)c4c3)CC1)CC2=O [1.080],7.44
6,CCc1n[nH]c2c(OC)cc(C(=O)N3CCC4(CC3)CC(=O)c3nn(C(C)C)cc3O4)cc12 [1.044],8.30
7,CC(C)(C)n1cc2c(n1)C(=O)CC1(CCN(C(=O)c3cc(Cl)c4cn[nH]c4c3)CC1)O2 [2.009],8.15
8,CCc1n[nH]c2c(OC)cc(C(=O)N3CCC4(CC3)CC(=O)c3nn(C5CCC5)cc3O4)cc12 [1.050],8.30
9,Cc1cc(C(=O)N2CCC3(CC2)CC(=O)c2nn(C(C)(C)C)cc2O3)cc2[nH]ncc12 [2.018],7.48
10,Cc1cc(C(=O)N2CCC3(CC2)CC(=O)c2nn(Cc4ccccc4)c(C)c2O3)cc2cn[nH]c12 [1.033],6.31
11,Cc1ccc2cc(C(=O)N3CCC4(CC3)CC(=O)c3nn(C(C)(C)C)cc3O4)ccc2c1 [6.005],7.32
12,CCn1nc2c(c1C)OC1(CCN(C(=O)c3ccc4c(c3)CCC(=O)N4)CC1)CC2=O [13.001],6.38
13,CCn1nc2c(c1C)OC1(CCN(C(=O)c3ccc4ncccc4c3)CC1)CC2=O [15.003],6.75
14,CCn1nc2c(c1C)OC1(CCN(C(=O)c3cc(OC)c4[nH]ncc4c3)CC1)CC2=O [1.052],7.48
15,CC(C)(C)n1cc2c(n1)C(=O)CC1(CCN(C(=O)c3ccc4c(c3)NC(=O)CC4)CC1)O2 [12.004],7.85
16,CCn1nc2c(c1C)OC1(CCN(C(=O)c3cc(OC)c4[nH]nc(C)c4c3)CC1)CC2=O [1.077],7.82
17,Cn1cc2c(n1)C(=O)CC1(CCN(C(=O)c3ccc4[nH]ncc4c3)CC1)O2 [1.071],6.11
18,COc1cc(C(=O)N2CCC3(CC2)CC(=O)c2nn(C(C)C)cc2O3)cc2nc(C)oc12 [9.004],7.08
19,CCC(C)n1cc2c(n1)C(=O)CC1(CCN(C(=O)c3ccc4[nH]ncc4c3)CC1)O2 (stereo not shown) [1.142],7.70

row,Compound,pIC50
1,Cn1c(O)nc2cc(C(=O)N3CCC4(CC3)CC(=O)c3nn(C(C)(C)C)cc3O4)ccc21 [8.010],7.74
2,CCn1nc2c(c1C)OC1(CCN(C(=O)c3cc(C)c4nc(C)[nH]c4c3)CC1)CC2=O [3.002],7.27
3,Cc1c2c(nn1C(C)C)C(=O)CC1(CCN(C(=O)c3cc(Cl)c4[nH]ncc4c3)CC1)O2 [1.133],8.40
4,Cc1c2c(nn1C)C(=O)CC1(CCN(C(=O)c3ccc4nn(C)cc4c3)CC1)O2 [25.005],5.81
5,CC(C)(C)n1cc2c(n1)C(=O)CC1(CCN(C(=O)c3cc(F)c4cn[nH]c4c3)CC1)O2 [2.014],7.55
6,CCn1nc2c(c1C)OC1(CCN(C(=O)c3cc(F)c4nc(C)[nH]c4c3)CC1)CC2=O [3.018],6.98
7,Cc1n[nH]c2ccc(C(=O)N3CCC4(CC3)CC(=O)c3nn(C(C)C)c(C)c3O4)cc12 [1.091],7.82
8,COc1ccc2ccc(C(=O)N3CCC4(CC3)CC(=O)c3nn(C(C)(C)C)cc3O4)cc2c1 [6.003],8.70
9,Cc1cc(C(=O)N2CCC3(CC2)CC(=O)c2nn(C(C)(C)C)cc2O3)cc2[nH]cnc12 [3.008],8.22
10,COc1cccc2cc(C(=O)N3CCC4(CC3)CC(=O)c3nn(C(C)(C)C)cc3O4)ccc12 [6.006],8.15
11,CCc1n[nH]c2ccc(C(=O)N3CCC4(CC3)CC(=O)c3nn(C(C)(C)C)cc3O4)cc12 [1.096],7.92
12,CCn1cc2c(n1)C(=O)CC1(CCN(C(=O)c3cc(OC)c4[nH]ncc4c3)CC1)O2 [1.053],7.21
13,CCc1n[nH]c2ccc(C(=O)N3CCC4(CC3)CC(=O)c3nn(CC)cc3O4)cc12 [1.093],7.74
14,Cc1n[nH]c2c(C)cc(C(=O)N3CCC4(CC3)CC(=O)c3nn(C5CCOC5)cc3O4)cc12 (stereo not shown) [1.016],7.66
15,CCc1cc(C(=O)N2CCC3(CC2)CC(=O)c2nn(C)cc2O3)cc2cn[nH]c12 [1.059],6.68
16,CCn1nc2c(c1C)OC1(CCN(C(=O)c3ccc4c(c3)NC(=O)CC4)CC1)CC2=O [12.002],7.44
17,CCn1nc2c(c1C)OC1(CCN(C(=O)c3ccc4cnsc4c3)CC1)CC2=O [24.003],6.39
18,Cc1n[nH]c2ccc(C(=O)N3CCC4(CC3)CC(=O)c3nn(C5CCCCC5)cc3O4)cc12 [1.087],6.87
